The values below come from US12606541B2, “PPARg modulators and methods of use” (Eisai R&D Management Co., Ltd., priority 2020, dated 2026).

One assay has as its system UM-UC-9 engineered cells. As to the kind of experiment: Cell proliferation / short-term viability assay, CellTiter-Glo 144 h. The format is cell-based, human. The note with it: Homo sapiens, UM-UC-9, 144 h, read-out: CTGlo 144 h UMUC9.5, G150. Put shortly:
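UM-UC-9 engineered assay-ready cells seeded at 500 cells/well in high-glucose DMEM/10% FBS, treated from dose-response plates, grown at 37° C, 5% CO2. CellTiter-Glo 2.0 luminescence read on day 7, with a day-0 pretreatment plate as T0 reference and DMSO wells as negative control.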

Another assay has as its target T1, His6-TEV-PPARγ-(234-505) (Homo sapiens, UniProt P37231).
T1 construct: The His6-TEV-PPARγ-(234-505) protein for assay was expressed and purified; TEV cleavage site (N); made in house
T1 sequence (P37231 234-505): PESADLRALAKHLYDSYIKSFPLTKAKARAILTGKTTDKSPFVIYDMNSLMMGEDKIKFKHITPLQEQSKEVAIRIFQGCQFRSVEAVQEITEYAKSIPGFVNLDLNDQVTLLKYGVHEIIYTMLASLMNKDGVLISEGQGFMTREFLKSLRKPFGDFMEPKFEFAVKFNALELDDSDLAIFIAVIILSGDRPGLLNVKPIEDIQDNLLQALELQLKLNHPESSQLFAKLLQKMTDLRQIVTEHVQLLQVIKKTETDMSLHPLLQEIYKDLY
As to the kind of experiment: TR-FRET Assay to Measure Co-R Peptide Recruitment to PPARγ. The format is biochemical. As to conditions: Co-R peptide (SMRT-ID2) recruitment; top final concentration 20 μM; read-out: TR-FRET i-Ag; AC50. The method, boiled down: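 His-tagged PPARγ (or controls) was preincubated with compound for 20 minutes at room temperature, then 5 nM anti-His terbium antibody and 200 nM FITC-labeled SMRT-ID2 corepressor peptide (final) were added for a further hour. TR-FRET signal was normalized to percent response using 500 nM T0070907 and DMSO controls.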

Each structure is given as a SMILES string.

`COc1cc(-c2cc(C(=O)N3CCC(C(=O)Nc4cccc(C(F)F)c4)CC3)n[nH]2)c(Cl)cn1` [Example 147, 1-(5-(5-chloro-2-methoxypyridin-4-yl)-1H-pyrazole-3-carbonyl)-N-(3-(difluoromethyl)phenyl)piperidine-4-carboxamide]: the IC50 with UM-UC-9 engineered cells was determined as 0.955 µM. In addition, on His6-TEV-PPARγ-(234-505), the AC50 came out at 0.268 µM.
With `COc1cc(-c2cc(C(=O)N3CCC(C(=O)NCC4CC(F)(F)C4)CC3)n[nH]2)c(Cl)cn1` [Example 148, 1-(5-(5-chloro-2-methoxypyridin-4-yl)-1H-pyrazole-3-carbonyl)-N-((3,3-difluorocyclobutyl)methyl)piperidine-4-carboxamide], the IC50 with UM-UC-9 engineered cells amounted to 3.17 µM. Besides, at His6-TEV-PPARγ-(234-505), the AC50 worked out at 0.712 µM.
Consider `COc1cc(-c2cc(C(=O)N3CCC(C(=O)NCC(F)(F)c4ccccc4)CC3)n[nH]2)c(Cl)cn1` [Example 149, 1-(5-(5-chloro-2-methoxypyridin-4-yl)-1H-pyrazole-3-carbonyl)-N-(2,2-difluoro-2-phenylethyl)piperidine-4-carboxamide], for which the IC50 in the assay with UM-UC-9 engineered cells was 0.418 µM. At His6-TEV-PPARγ-(234-505), the AC50 amounted to 0.0493 µM.
The matching figures for `COc1cc(-c2cc(C(=O)N3CCC(C(=O)NCc4ccc(OC(F)F)cc4)CC3)n[nH]2)c(Cl)cn1` [Example 151, 1-(5-(5-chloro-2-methoxypyridin-4-yl)-1H-pyrazole-3-carbonyl)-N-(4-(difluoromethoxy)benzyl)piperidine-4-carboxamide]: 0.539 µM and 0.0481 µM.
In the same order, the values of `COc1cc(-c2cc(C(=O)N3CCC(C(=O)NCc4ccc5ncoc5c4)CC3)n[nH]2)c(Cl)cn1` [Example 152] are 0.825 µM and 0.853 µM.
For the compound `COc1cc(-c2cc(C(=O)N3CCC(C(=O)N[C@H](C)c4cccc(F)c4)CC3)n[nH]2)c(Cl)cn1` [Example 153, (R)-1-(5-(5-chloro-2-methoxypyridin-4-yl)-1H-pyrazole-3-carbonyl)-N-(1-(3-fluorophenyl)ethyl)piperidine-4-carboxamide], in the assay on UM-UC-9 engineered cells, the IC50 was found to be 2.09 µM. The AC50 on His6-TEV-PPARγ-(234-505) came to 0.621 µM.
Regarding `COc1cc(-c2cc(C(=O)N3CCC(C(=O)NCc4cc(Cl)ccc4F)CC3)n[nH]2)c(Cl)cn1` [Example 154, N-(5-chloro-2-fluorobenzyl)-1-(5-(5-chloro-2-methoxypyridin-4-yl)-1H-pyrazole-3-carbonyl)piperidine-4-carboxamide], the IC50 in the assay with UM-UC-9 engineered cells amounted to 0.166 µM. The AC50 on His6-TEV-PPARγ-(234-505) worked out at 0.0774 µM.
In the same order, the values of `COc1cc(-c2cc(C(=O)N3CCC(C(=O)NCc4cccc(F)c4F)CC3)n[nH]2)c(Cl)cn1` [Example 155, 1-(5-(5-chloro-2-methoxypyridin-4-yl)-1H-pyrazole-3-carbonyl)-N-(2,3-difluorobenzyl)piperidine-4-carboxamide] are 0.121 µM and 0.103 µM.
For the compound `COc1cc(-c2cc(C(=O)N3CCC(C(=O)NCc4cccc(Cl)c4F)CC3)n[nH]2)c(Cl)cn1` [Example 156, N-(3-chloro-2-fluorobenzyl)-1-(5-(5-chloro-2-methoxypyridin-4-yl)-1H-pyrazole-3-carbonyl)piperidine-4-carboxamide], the IC50 in the assay with UM-UC-9 engineered cells turned out to be 0.105 µM. In addition, the AC50 at His6-TEV-PPARγ-(234-505) is 0.0321 µM.
As for `COc1cc(-c2cc(C(=O)N3CCC(C(=O)NCc4cccc(F)c4)CC3)n[nH]2)c(Cl)cn1` [Example 157, 1-(5-(5-chloro-2-methoxypyridin-4-yl)-1H-pyrazole-3-carbonyl)-N-(3-fluorobenzyl)piperidine-4-carboxamide], the IC50 in the assay on UM-UC-9 engineered cells stood at 0.212 µM. The AC50 at His6-TEV-PPARγ-(234-505) was found to be 0.13 µM.
The matching figures for `COc1cc(-c2cc(C(=O)N3CCC(C(=O)NCC4CCC=CO4)CC3)n[nH]2)c(Cl)cn1` (stereo not shown) [Example 158, 1-(5-(5-chloro-2-methoxypyridin-4-yl)-1H-pyrazole-3-carbonyl)-N-((3,4-dihydro-2H-pyran-2-yl)methyl)piperidine-4-carboxamide]: 0.544 µM and 0.296 µM.
